# Tests used:
# [1] = Plasma pharmacokinetics of topical pirenzepine formulations in healthy volunteers, 14 days; conditions: any subject, any time point, any day
# Procedure: PK: Blood samples were collected for the determination of pirenzepine concentration at the following nominal times:
# Blood samples on Days 1, 7, and 14 were collected via either the indwelling intravenous (IV) cannula to reduce the frequency of direct venipuncture (at the discretion of the Investigator).
# A validated liquid chromatography tandem mass-spectroscopy method (LLOQ: 0.1 ng/mL and ULOQ: 200 ng/mL) was used to determine the concentration of pirenzepine in plasma. […] For the pirenzepine concentration analysis in biopsy samples, a qualified method (LLOQ 1.00 mg/mL) was used.
# Pirenzepine concentrations in plasma and skin biopsies were evaluated using Phoenix™ WinNonlin® version 8.0 (Pharsight Corporation, USA) and Microsoft® Excel® 2010 (Microsoft Corporation, USA).
# Pharmacokinetic Population: According to the statistical analysis plan, the PK population comprised all randomized subjects with evaluable plasma concentrations of pirenzepine (ie, subjects with plasma concentrations considered sufficient and interpretable [at the discretion of the pharmacokineticist]). […] Any exclusion from the PK population was determined by the pharmacokineticist on blinded data, after database lock and prior to unblinding the study. […]
# The goodness of fit of the regression was evaluated using the adjusted square of the correlation coefficient (R2 adjusted). […]
# M1R = molecular target: T1, M1R (Homo sapiens, UniProt P11229); conditions: cited from earlier work
# T1 sequence (P11229 1-460): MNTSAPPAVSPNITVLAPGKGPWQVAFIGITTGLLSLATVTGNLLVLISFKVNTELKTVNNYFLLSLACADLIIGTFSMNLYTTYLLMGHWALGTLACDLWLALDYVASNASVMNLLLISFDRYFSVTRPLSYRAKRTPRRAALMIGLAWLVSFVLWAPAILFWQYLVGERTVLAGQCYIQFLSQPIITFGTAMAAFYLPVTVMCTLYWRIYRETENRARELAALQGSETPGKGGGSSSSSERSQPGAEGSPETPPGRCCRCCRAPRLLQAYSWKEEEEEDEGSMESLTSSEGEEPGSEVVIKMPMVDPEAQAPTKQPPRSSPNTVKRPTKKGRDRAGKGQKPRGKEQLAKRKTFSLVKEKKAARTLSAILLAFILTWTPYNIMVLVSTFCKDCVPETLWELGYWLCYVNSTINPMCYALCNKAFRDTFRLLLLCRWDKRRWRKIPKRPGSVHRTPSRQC
# diabetic mice = conditions: topical; cited from earlier work
# [2] = cited from earlier work
smiles,measurement,setting,value
O=C1Nc2cccnc2N(C(=O)CN2CCNCC2)c2ccccc21 [desmethyl pirenzepine],plasma level of the primary metabolite,[1],not quantifiable
O=C(CCNS(=O)(=O)c1cccc2nsnc12)N1CCN(c2ccncc2)CC1 [VU0255035],"selectivity to M1R relative to M2, M3, M4 and M5 receptors",M1R,75 times
CN1CCN(CC(=O)N2c3ccccc3C(=O)Nc3cccnc32)CC1 [pirenzepine],intraepidermal nerve fibers,diabetic mice,prevented and reversed loss of intraepidermal nerve fibers
same,motor nerve conduction velocity,diabetic mice,prevented deficits in motor nerve conduction velocity
same,sub-epidermal nerve plexus,diabetic mice,prevented loss of sub-epidermal nerve plexus
same,tactile allodynia,diabetic mice,prevented tactile allodynia
same,thermal hypoalgesia,diabetic mice,prevented and reversed the development of thermal hypoalgesia
same,Log P,[2],0.6
same,Solubility,[2],68.2 µg/mL

# — patent US20220273671A1, “TOPICAL FORMULATIONS FOR TREATMENT OF PERIPHERAL NEUROPATHIES” (priority 2019, published 2022)
